Results on 10 compounds are retold here after ChEMBL document CHEMBL4190182 (Medchemcomm, 2016).

Test [1] has as its target T1, Sigma intracellular receptor 2 (Rattus norvegicus, UniProt Q5U3Y7).
T1 sequence (Q5U3Y7 whole entry): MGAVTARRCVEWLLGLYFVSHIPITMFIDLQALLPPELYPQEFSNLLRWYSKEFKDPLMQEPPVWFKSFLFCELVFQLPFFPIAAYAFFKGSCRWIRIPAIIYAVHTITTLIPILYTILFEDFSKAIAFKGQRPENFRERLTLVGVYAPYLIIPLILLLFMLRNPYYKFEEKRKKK
The experiment in a line: Displacement of [3H]DTG from sigma2 receptor in Sprague-Dawley rat liver membranes after 120 mins by scintillation counting analysis. It counts as cell membranes, Membrane. For orientation: Displacement assays read how much labelled ligand stays bound in the presence of the test substance.

Test [2] has as its target Delta-type opioid receptor (Rattus norvegicus, UniProt P33533). Kind of test: Displacement of [3H]DPDPE from delta opioid receptor in Sprague-Dawley rat brain membranes after 120 mins by scintillation counting analysis. The class given is cell membranes, Membrane.
The target of test [3] is T2, Kappa-type opioid receptor (Cavia porcellus, UniProt P41144). The experiment in a line: Displacement of [3H]U-69,593 from kappa opioid receptor in guinea pig brain membranes after 120 mins by scintillation counting analysis. It counts as cell membranes, Membrane.
In the next test the target is Mu-type opioid receptor (Cavia porcellus, UniProt P97266). Kind of test: Displacement of [3H]DAMGO from mu opioid receptor in guinea pig brain membranes after 120 mins by scintillation counting analysis. The class given is cell membranes, Membrane.
Test [4] concerns the target Sigma non-opioid intracellular receptor 1 (Cavia porcellus, UniProt Q60492). The experiment in a line: Displacement of [3H]-(+)-Pentazocine from sigma1 receptor in guinea pig brain cortex membranes after 120 mins by scintillation counting analysis. It counts as cell membranes.
Test [5] addresses Kappa-type opioid receptor (Homo sapiens) (UniProt P41145). The experiment in a line: Agonist activity at kappa opioid receptor in HEK293 cells at 1 uM after 30 mins by [35S]-GTPgammaS binding assay relative to control. The class given is functional, cell-based. (In general: GTPγS resists hydrolysis and so accumulates on activated G proteins.)
The target in test [6] is T2, Kappa-type opioid receptor. The experiment in a line: Displacement of [3H]U-69,593 from kappa opioid receptor in guinea pig brain membranes by scintillation counting analysis. It counts as cell membranes, Membrane.

Structures are written as SMILES. Bounds are passed on as bounds.

T2 sequence (P41144 whole entry): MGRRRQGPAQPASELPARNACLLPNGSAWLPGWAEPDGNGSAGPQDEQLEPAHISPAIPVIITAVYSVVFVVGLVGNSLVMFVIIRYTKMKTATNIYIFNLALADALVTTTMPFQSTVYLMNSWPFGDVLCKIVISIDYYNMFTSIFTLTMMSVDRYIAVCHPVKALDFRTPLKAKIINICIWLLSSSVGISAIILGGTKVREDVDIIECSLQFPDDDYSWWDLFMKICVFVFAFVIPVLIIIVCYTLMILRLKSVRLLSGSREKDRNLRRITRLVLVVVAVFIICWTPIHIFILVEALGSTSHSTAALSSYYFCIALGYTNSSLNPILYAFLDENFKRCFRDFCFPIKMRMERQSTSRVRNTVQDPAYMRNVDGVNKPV
Chain of Delta-type opioid receptor (P33533 whole entry): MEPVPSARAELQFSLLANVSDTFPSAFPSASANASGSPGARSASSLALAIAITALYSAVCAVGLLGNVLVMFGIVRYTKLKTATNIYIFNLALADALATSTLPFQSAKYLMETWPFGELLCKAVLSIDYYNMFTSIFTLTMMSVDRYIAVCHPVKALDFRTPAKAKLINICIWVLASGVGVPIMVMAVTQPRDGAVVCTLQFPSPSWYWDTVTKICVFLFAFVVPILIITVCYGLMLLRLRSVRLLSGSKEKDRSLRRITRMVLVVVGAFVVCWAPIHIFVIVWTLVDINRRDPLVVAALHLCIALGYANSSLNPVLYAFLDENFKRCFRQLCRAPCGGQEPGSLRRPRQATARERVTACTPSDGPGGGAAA
Chain of Sigma non-opioid intracellular receptor 1 (Q60492 whole entry): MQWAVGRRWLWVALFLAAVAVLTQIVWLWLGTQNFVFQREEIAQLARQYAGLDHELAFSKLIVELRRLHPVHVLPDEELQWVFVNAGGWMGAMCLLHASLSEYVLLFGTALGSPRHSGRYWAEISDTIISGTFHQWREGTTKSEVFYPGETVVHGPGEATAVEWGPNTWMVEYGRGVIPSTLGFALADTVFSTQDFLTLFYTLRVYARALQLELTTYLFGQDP
Chain of Mu-type opioid receptor (P97266 whole entry): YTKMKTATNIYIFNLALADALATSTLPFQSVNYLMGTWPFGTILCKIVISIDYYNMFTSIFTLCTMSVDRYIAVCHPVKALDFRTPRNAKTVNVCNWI
Chain of Kappa-type opioid receptor (Homo sapiens) (P41145 whole entry): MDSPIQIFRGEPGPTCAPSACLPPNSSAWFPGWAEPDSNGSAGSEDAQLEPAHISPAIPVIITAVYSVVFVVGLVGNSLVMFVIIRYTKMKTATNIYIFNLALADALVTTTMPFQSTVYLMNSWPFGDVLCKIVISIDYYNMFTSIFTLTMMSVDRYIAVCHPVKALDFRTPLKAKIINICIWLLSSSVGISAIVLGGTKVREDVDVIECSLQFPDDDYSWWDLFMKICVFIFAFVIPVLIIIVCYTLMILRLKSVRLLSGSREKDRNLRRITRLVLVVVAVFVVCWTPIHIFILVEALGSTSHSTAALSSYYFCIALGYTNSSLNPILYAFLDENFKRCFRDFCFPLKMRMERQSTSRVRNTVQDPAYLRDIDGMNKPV

With `O=C(Cc1ccc(Cl)c(Cl)c1)N1CC2OCCN(C(=O)Cc3ccc(Cl)c(Cl)c3)C2C(N2CCCC2)C1` (racemic), the inhibition constant (Ki) in test [1] is > 1000 nM.
Regarding `O=C1COC2CN(C(=O)Cc3ccc(Cl)c(Cl)c3)CC(N3CCCC3)C2N1` (racemic), the Ki (in test [2]; in test [3]; in test [1]; on Mu-type opioid receptor; in test [4]) was > 1000 nM each time.
Take `O=C(Cc1ccc(Cl)c(Cl)c1)N1CCOC2CN(Cc3cccnc3)CC(N3CCCC3)C21` (racemic): the Ki in test [2] was 666 nM; in test [3], > 1000 nM; in test [1], > 1000 nM; at Mu-type opioid receptor it was 633 nM; in test [4] it was 291 nM.
As for `O=C(Cc1ccc(Cl)c(Cl)c1)N1CCOC2CNCC(N3CCCC3)C21` (racemic), the Ki in test [2] is > 1000 nM; in test [3] it was 132 nM; in test [1], > 1000 nM; on Mu-type opioid receptor, > 1000 nM; in test [4], > 1000 nM. This compound had an Activity in test [5] of 27%.
In test [6], `COC(=O)N1CCC(NC(=O)Cc2ccc(Cl)c(Cl)c2)C([C@@H](C)N2CCCC2)C1` (stereo partly drawn) gave an inhibition constant Ki of 0.31 nM.
For `CCCCN1CC2OCCN(C(=O)Cc3ccc(Cl)c(Cl)c3)C2C(N2CCCC2)C1` (racemic), the Ki is > 1000 nM in test [2]; > 1000 nM in test [3]; 316 nM in test [1]; 502 nM at Mu-type opioid receptor; 192 nM in test [4].
`CN1CC2OCCN(C(=O)Cc3ccc(Cl)c(Cl)c3)C2C(N2CCCC2)C1` (racemic): the Ki in test [2] is > 1000 nM; in test [3], 286 nM; in test [1], > 1000 nM; on Mu-type opioid receptor, > 1000 nM; in test [4] it was > 1000 nM.
As to `CCN1CC2OCCN(C(=O)Cc3ccc(Cl)c(Cl)c3)C2C(N2CCCC2)C1` (racemic), the Ki in test [2] is > 1000 nM; in test [3] it was 1300 nM; in test [1], 102 nM; at Mu-type opioid receptor it was > 1000 nM; in test [4], 391 nM.
For `O=C(Cc1ccc(Cl)c(Cl)c1)N1CCOC2CN(Cc3ccccc3)CC(N3CCCC3)C21` (racemic), the Ki in test [2] is 260 nM; in test [3], 912 nM; in test [1], > 1000 nM; at Mu-type opioid receptor, 261 nM; in test [4], 983 nM.
Turning to `O=C(Cc1ccc(Cl)c(Cl)c1)N1CCOC2CN(C3CCCC3)CC(N3CCCC3)C21` (racemic), the Ki in test [2] is 717 nM; in test [3] it was > 1000 nM; in test [1] it was 45 nM; on Mu-type opioid receptor, 447 nM; in test [4] it was 181 nM.

The term Ki denotes the equilibrium dissociation constant of an inhibitor or competing ligand from its target. Read a low Ki as tighter binding.
